Assay [1] concerns KLC1 TPR domain (KLC1^TPR). The experiment in a line: Fluorescence polarization binding to KLC1 TPR domain. The conditions noted are these: 150 mM NaCl, pH 7.5, 20 °C. The protocol:
(§1) Measurements were performed as previously described ([Pernigo et al., 2013]) with modifications as listed in Supplemental Experimental Procedures. […]
(§2) minutes with the addition of 15 µl of washed pre-equilibrated Protein-G Dynabeads. Beads were washed three times in IP buffer and then boiled in 50 µl 1X SDS-loading buffer. Samples were separated by SDS-PAGE and transferred to immobilon-PVDF membrane (Millipore) for western blotting. Primary antibodies listed above. HRP conjugated secondary antibodies were from Jackson. […]
(§3) Fluorescence polarization measurements […]
(§4) […] All fluorescence polarization (FP) measurements were carried out on a BMG Labtech PolarStar Omega plate reader at 20 °C by incubating 300 nM TAMRA-labeled peptides with His6-tagged KLC2TPR at increasing concentrations in 25 mM Hepes pH 7.5, 150 mM NaCl, 5 mM β-mercaptoethanol. […]
(§5) Four mouse brains were homogenized in 16 ml of ice cold Homogenization buffer (10 mM HEPES pH 7.4, 0.32 M sucrose, 2 mM EDTA plus protease inhibitors) then centrifuged at 1000 g for 15 min at 4 °C to form supernatant ‘S1’ and pellet ‘P1’. […] Samples of S1-P3 were taken at each stage and protein content measured by BCA assay and normalized to 1 mg/ml with 10 µg loaded on gels. […] Protein concentration and turbidity of fractions was analyzed at 280 and 340 nm respectively in a SynergyMx plate reader (BioTek). […]

For assay [2], the target named is T1, KLC2 TPR domain (KLC2^TPR) (Mus musculus, UniProt O88448).
T1 construct: amino acids V218 to K480) was amplified from a mouse; made in house; host or cells: E. coli (inferred from the pET28a vector
T1 sequence (O88448 217-478 limits assumed): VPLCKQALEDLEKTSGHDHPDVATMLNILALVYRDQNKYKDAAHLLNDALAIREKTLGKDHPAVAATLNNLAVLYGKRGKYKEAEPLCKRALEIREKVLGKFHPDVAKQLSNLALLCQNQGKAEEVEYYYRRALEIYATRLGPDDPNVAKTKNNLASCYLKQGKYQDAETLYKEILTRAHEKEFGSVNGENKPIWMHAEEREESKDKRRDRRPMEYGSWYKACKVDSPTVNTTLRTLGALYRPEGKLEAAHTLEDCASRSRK
The experiment in a line: Fluorescence polarization binding to KLC2 TPR domain. The conditions noted are these: 150 mM NaCl, pH 7.5, 20 °C. As for the experimental part:
as §1, §2, §3, §4, §5
For orientation: Polarisation of emitted light reports the rotation of a fluorescent probe.

In the case of “TAMRA-TRTLQWDTDPS [WD2^pept, peptide centered on the second tryptophan motif of DIC1]”, the “interaction with KLC1 TPR” value in assay [1] was “did not show an interaction”. Further, the “interaction with KLC2 TPR” value in assay [2] is “did not show an interaction”.

These data come from publication PMC4893161, “The Dynamic Localization of Cytoplasmic Dynein in Neurons Is Driven by Kinesin-1” (Neuron, 2016).
